How the values were obtained:
[1] = Cell viability assay (MTT), normal cells; type: cell-based; details: human, MCF-10A normal mammary gland epithelial cells, four-day incubation
Method: The impact of novel compounds 10a-o and 13a-e on cell viability was examined using the MCF-10A (human mammary gland epithelial) normal cell line. The MTT test was employed to assess the cell viability of the novel compounds after a four-day incubation with MCF-10A cells ([El-Sherief et al., 2019]; [Ramadan et al., 2020]).
The effects of compounds 10a-o and 13a-e on cell viability were assessed using the human mammary gland epithelial normal cell line (MCF-10A). The MTT assay assessed the cell viability of compounds 10a-o and 13a-e following a four-day incubation with MCF-10A cells ([El-Sherief et al., 2019]; [Ramadan et al., 2020]). Check Supplementary Appendix A for additional information.
4.2. Biological evaluation
4.2.1 Cell Viability assay (MTT assay)
MTT assay was performed to investigate the effect of the synthesized compounds on mammary epithelial cells (MCF-10A). The cells were propagated in medium consisting of Ham's F-12 medium/ Dulbecco's modified Eagle's medium (DMEM) (1:1) supplemented with 10% foetal calf serum, 2 mM glutamine, insulin (10 μg/mL), hydrocortisone (500 ng/mL) and epidermal growth factor (20 ng/mL). Trypsin ethylenediamine tetra acetic acid (EDTA) was used to passage the cells after every 2-3 days. 96-well flat-bottomed cell culture plates were used to seed the cells at a density of 10^4 cells mL-1. The medium was aspirated from all the wells of culture plates after 24 h followed by the addition of synthesized compounds (in 200 μL medium to yield a final concentration of 0.1% (v/v) dimethyl sulfoxide) into individual wells of the plates.
Four wells were designated to a single compound. The plates were allowed to incubate at 37°C for 96 h. Afterwards, the medium was aspirated and 3-[4,5-dimethylthiazol-2-yl]-2,5-diphenyltetrazolium bromide (MTT) (0.4 mg/mL) in medium was added to each well and subsequently incubated for 3 h. The medium was aspirated and 150 μL dimethyl sulfoxide (DMSO) was added to each well. The plates were vortexed followed by the measurement of absorbance at 540 nm on a microplate reader. The results were presented as inhibition (%) of proliferation in contrast to controls comprising 0.1%

tubulin = assay: Tubulin polymerization inhibition assay (Cytoskeleton kit);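 as to all read-outs here: Cell-free tubulin polymerization read by fluorescent reporter enhancement over a 30 min reaction, with the compound-free kit control taken as 100% activity and inhibition relative to it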; details: for Tub. enzyme inhibition assay %inhibition / Tub %inh: 30 min; for Tub. enzyme inhibition assay %inhibition: codes 522-537 run; for Tub. enzyme inhibition assay K. Activity: control = 120, codes 522-537 run; for IC50: read-out: Tubulin inhibition IC50 ± SEM, triplicate for each tested concentration; for Tub. (IC50) IC50±SD: supplement raw data, lab codes; for Tub %inh: YB-EGY run; for Tub K.Activity: EC = 120, YB-EGY run

Cc1ccc(-c2csc(NC(=O)CSc3nc(C)c(C(=O)/C=C/c4ccccc4)s3)n2)cc1 [Compound 10k, (E)-2-((5-cinnamoyl-4-methylthiazol-2-yl)thio)-N-(4-(p-tolyl)thiazol-2-yl)acetamide]
viability at 96 h, 50 µM [1]: 90%
Tub. enzyme inhibition assay %inhibition (tubulin; conc 0.01 (unit not given)): 0.28%
Tub. enzyme inhibition assay K. Activity (tubulin; conc 0.01 (unit not given)): 119.66
Tub. enzyme inhibition assay %inhibition (tubulin; conc 0.1 (unit not given)): 5.09%
Tub. enzyme inhibition assay K. Activity (tubulin; conc 0.1 (unit not given)): 113.89
Tub. enzyme inhibition assay %inhibition (tubulin; conc 1 (unit not given)): 16.5%
Tub. enzyme inhibition assay K. Activity (tubulin; conc 1 (unit not given)): 100.23
Tub. enzyme inhibition assay %inhibition (tubulin; conc 10 (unit not given)): 36.5%
Tub. enzyme inhibition assay K. Activity (tubulin; conc 10 (unit not given)): 76.175
Tub. enzyme inhibition assay %inhibition (tubulin; conc 100 (unit not given)): 71.9%
Tub. enzyme inhibition assay K. Activity (tubulin; conc 100 (unit not given)): 33.707
IC50 (tubulin): 47.8 ± 1.74 µM
Tub. (IC50) IC50±SD (tubulin): 23.48 ± 0.86 mg/L

Cc1nc(SCC(=O)Nc2nc(-c3ccccc3)cs2)sc1C(=O)/C=C/c1ccc(F)cc1 [Compound 10c, (E)-2-((5-(3-(4-fluorophenyl)acryloyl)-4-methylthiazol-2-yl)thio)-N-(4-phenylthiazol-2-yl)acetamide]
viability at 96 h, 50 µM [1]: 89%
Tub %inh (tubulin; conc 0.1 (unit not given)): 4.47%
Tub K.Activity (tubulin; conc 0.1 (unit not given)): 114.64
Tub %inh (tubulin; conc 1 (unit not given)): 12.4%
Tub K.Activity (tubulin; conc 1 (unit not given)): 105.09
Tub %inh (tubulin; conc 10 (unit not given)): 25.6%
Tub K.Activity (tubulin; conc 10 (unit not given)): 89.245
Tub %inh (tubulin; conc 50 (unit not given)): 52.5%
Tub K.Activity (tubulin; conc 50 (unit not given)): 56.999
Tub %inh (tubulin; conc 100 (unit not given)): 83%
Tub K.Activity (tubulin; conc 100 (unit not given)): 20.424
IC50 (tubulin): 22.5 ± 0.69 µM

COc1ccc(/C=C/C(=O)c2sc(SCC(=O)Nc3nc(-c4ccccc4)cs3)nc2C)cc1 [Compound 10e, (E)-2-((5-(3-(4-methoxyphenyl)acryloyl)-4-methylthiazol-2-yl)thio)-N-(4-phenylthiazol-2-yl)acetamide]
viability at 96 h, 50 µM [1]: 92%
Tub. enzyme inhibition assay %inhibition (tubulin; conc 0.01 (unit not given)): 2.57%
Tub. enzyme inhibition assay K. Activity (tubulin; conc 0.01 (unit not given)): 116.92
Tub. enzyme inhibition assay %inhibition (tubulin; conc 0.1 (unit not given)): 9.6%
Tub. enzyme inhibition assay K. Activity (tubulin; conc 0.1 (unit not given)): 108.49
Tub. enzyme inhibition assay %inhibition (tubulin; conc 1 (unit not given)): 20.4%
Tub. enzyme inhibition assay K. Activity (tubulin; conc 1 (unit not given)): 95.5
Tub. enzyme inhibition assay %inhibition (tubulin; conc 10 (unit not given)): 46%
Tub. enzyme inhibition assay K. Activity (tubulin; conc 10 (unit not given)): 64.791
Tub. enzyme inhibition assay %inhibition (tubulin; conc 100 (unit not given)): 83.3%
Tub. enzyme inhibition assay K. Activity (tubulin; conc 100 (unit not given)): 19.996
IC50 (tubulin): 15.3 ± 0.49 µM
Tub. (IC50) IC50±SD (tubulin): 7.77 ± 0.25 mg/L

Cc1ccc(/C=C/C(=O)c2sc(SCC(=O)Nc3nc(-c4ccc(C)cc4)cs3)nc2C)cc1 [Compound 10n, (E)-2-((4-methyl-5-(3-(p-tolyl)acryloyl)thiazol-2-yl)thio)-N-(4-(p-tolyl)thiazol-2-yl)acetamide]
viability at 96 h, 50 µM [1]: 89%
Tub. enzyme inhibition assay %inhibition (tubulin; conc 0.01 (unit not given)): 2.01%
Tub. enzyme inhibition assay K. Activity (tubulin; conc 0.01 (unit not given)): 117.59
Tub. enzyme inhibition assay %inhibition (tubulin; conc 0.1 (unit not given)): 8.94%
Tub. enzyme inhibition assay K. Activity (tubulin; conc 0.1 (unit not given)): 109.27
Tub. enzyme inhibition assay %inhibition (tubulin; conc 1 (unit not given)): 26.1%
Tub. enzyme inhibition assay K. Activity (tubulin; conc 1 (unit not given)): 88.73
Tub. enzyme inhibition assay %inhibition (tubulin; conc 10 (unit not given)): 49.9%
Tub. enzyme inhibition assay K. Activity (tubulin; conc 10 (unit not given)): 60.139
Tub. enzyme inhibition assay %inhibition (tubulin; conc 100 (unit not given)): 76.7%
Tub. enzyme inhibition assay K. Activity (tubulin; conc 100 (unit not given)): 27.908
IC50 (tubulin): 16 ± 0.59 µM
Tub. (IC50) IC50±SD (tubulin): 8.075 ± 0.3 mg/L

COc1ccc(/C=C/C(=O)c2sc(SCC(=O)Nc3nccs3)nc2C)cc1 [Compound 13e, (E)-2-((5-(3-(4-methoxyphenyl)acryloyl)-4-methylthiazol-2-yl)thio)-N-(thiazol-2-yl)acetamide]
viability at 96 h, 50 µM [1]: 91%
Tub %inh (tubulin; conc 0.1 (unit not given)): 7.07%
Tub K.Activity (tubulin; conc 0.1 (unit not given)): 111.52
Tub %inh (tubulin; conc 1 (unit not given)): 16.4%
Tub K.Activity (tubulin; conc 1 (unit not given)): 100.36
Tub %inh (tubulin; conc 10 (unit not given)): 26.3%
Tub K.Activity (tubulin; conc 10 (unit not given)): 88.403
Tub %inh (tubulin; conc 50 (unit not given)): 41.7%
Tub K.Activity (tubulin; conc 50 (unit not given)): 69.965
Tub %inh (tubulin; conc 100 (unit not given)): 75.9%
Tub K.Activity (tubulin; conc 100 (unit not given)): 28.968
IC50 (tubulin): 39.9 ± 1.22 µM

Cc1ccc(/C=C/C(=O)c2sc(SCC(=O)Nc3nc(-c4ccc(Cl)cc4)cs3)nc2C)cc1 [Compound 10i, (E)-N-(4-(4-chlorophenyl)thiazol-2-yl)-2-((4-methyl-5-(3-(p-tolyl)acryloyl)thiazol-2-yl)thio)acetamide]
viability at 96 h, 50 µM [1]: 91%
Tub. enzyme inhibition assay %inhibition (tubulin; conc 0.01 (unit not given)): 1.51%
Tub. enzyme inhibition assay K. Activity (tubulin; conc 0.01 (unit not given)): 118.18
Tub. enzyme inhibition assay %inhibition (tubulin; conc 0.1 (unit not given)): 5.52%
Tub. enzyme inhibition assay K. Activity (tubulin; conc 0.1 (unit not given)): 113.37
Tub. enzyme inhibition assay %inhibition (tubulin; conc 1 (unit not given)): 19.3%
Tub. enzyme inhibition assay K. Activity (tubulin; conc 1 (unit not given)): 96.892
Tub. enzyme inhibition assay %inhibition (tubulin; conc 10 (unit not given)): 41.3%
Tub. enzyme inhibition assay K. Activity (tubulin; conc 10 (unit not given)): 70.409
Tub. enzyme inhibition assay %inhibition (tubulin; conc 100 (unit not given)): 72.1%
Tub. enzyme inhibition assay K. Activity (tubulin; conc 100 (unit not given)): 33.442
IC50 (tubulin): 33.5 ± 1.21 µM
Tub. (IC50) IC50±SD (tubulin): 17.63 ± 0.64 mg/L

Cc1ccc(-c2csc(NC(=O)CSc3nc(C)c(C(=O)/C=C/c4ccc(Cl)cc4)s3)n2)cc1 [Compound 10l, (E)-2-((5-(3-(4-chlorophenyl)acryloyl)-4-methylthiazol-2-yl)thio)-N-(4-(p-tolyl)thiazol-2-yl)acetamide]
viability at 96 h, 50 µM [1]: 89%
Tub. enzyme inhibition assay %inhibition (tubulin; conc 0.01 (unit not given)): 1.85%
Tub. enzyme inhibition assay K. Activity (tubulin; conc 0.01 (unit not given)): 117.78
Tub. enzyme inhibition assay %inhibition (tubulin; conc 0.1 (unit not given)): 10.9%
Tub. enzyme inhibition assay K. Activity (tubulin; conc 0.1 (unit not given)): 106.95
Tub. enzyme inhibition assay %inhibition (tubulin; conc 1 (unit not given)): 24.6%
Tub. enzyme inhibition assay K. Activity (tubulin; conc 1 (unit not given)): 90.43
Tub. enzyme inhibition assay %inhibition (tubulin; conc 10 (unit not given)): 49.3%
Tub. enzyme inhibition assay K. Activity (tubulin; conc 10 (unit not given)): 60.835
Tub. enzyme inhibition assay %inhibition (tubulin; conc 100 (unit not given)): 79.5%
Tub. enzyme inhibition assay K. Activity (tubulin; conc 100 (unit not given)): 24.585
IC50 (tubulin): 13.9 ± 0.51 µM
Tub. (IC50) IC50±SD (tubulin): 7.331 ± 0.27 mg/L

Cc1nc(SCC(=O)Nc2nc(-c3ccccc3)cs2)sc1C(=O)/C=C/c1ccc(Cl)cc1 [Compound 10b, (E)-2-((5-(3-(4-chlorophenyl)acryloyl)-4-methylthiazol-2-yl)thio)-N-(4-phenylthiazol-2-yl)acetamide]
viability at 96 h, 50 µM [1]: 91%
Tub %inh (tubulin; conc 0.1 (unit not given)): 5.79%
Tub K.Activity (tubulin; conc 0.1 (unit not given)): 113.05
Tub %inh (tubulin; conc 1 (unit not given)): 23.9%
Tub K.Activity (tubulin; conc 1 (unit not given)): 91.287
Tub %inh (tubulin; conc 10 (unit not given)): 41.4%
Tub K.Activity (tubulin; conc 10 (unit not given)): 70.334
Tub %inh (tubulin; conc 50 (unit not given)): 64.5%
Tub K.Activity (tubulin; conc 50 (unit not given)): 42.629
Tub %inh (tubulin; conc 100 (unit not given)): 88.7%
Tub K.Activity (tubulin; conc 100 (unit not given)): 13.577
IC50 (tubulin): 8.75 ± 0.27 µM

Cc1nc(SCC(=O)Nc2nccs2)sc1C(=O)/C=C/c1ccccc1 [Compound 13a, (E)-2-((5-cinnamoyl-4-methylthiazol-2-yl)thio)-N-(thiazol-2-yl)acetamide]
viability at 96 h, 50 µM [1]: 89%
Tub %inh (tubulin; conc 0.1 (unit not given)): 5.68%
Tub K.Activity (tubulin; conc 0.1 (unit not given)): 113.18
Tub %inh (tubulin; conc 1 (unit not given)): 16.6%
Tub K.Activity (tubulin; conc 1 (unit not given)): 100.09
Tub %inh (tubulin; conc 10 (unit not given)): 32.4%
Tub K.Activity (tubulin; conc 10 (unit not given)): 81.141
Tub %inh (tubulin; conc 50 (unit not given)): 62.4%
Tub K.Activity (tubulin; conc 50 (unit not given)): 45.076
Tub %inh (tubulin; conc 100 (unit not given)): 78.7%
Tub K.Activity (tubulin; conc 100 (unit not given)): 25.608
IC50 (tubulin): 15.8 ± 0.48 µM

COc1ccc(/C=C/C(=O)c2sc(SCC(=O)Nc3nc(-c4ccc(Cl)cc4)cs3)nc2C)cc1 [Compound 10j, (E)-N-(4-(4-chlorophenyl)thiazol-2-yl)-2-((5-(3-(4-methoxyphenyl)acryloyl)-4-methylthiazol-2-yl)thio)acetamide]
viability at 96 h, 50 µM [1]: 93%
Tub. enzyme inhibition assay %inhibition (tubulin; conc 0.01 (unit not given)): 2.01%
Tub. enzyme inhibition assay K. Activity (tubulin; conc 0.01 (unit not given)): 117.59
Tub. enzyme inhibition assay %inhibition (tubulin; conc 0.1 (unit not given)): 7.08%
Tub. enzyme inhibition assay K. Activity (tubulin; conc 0.1 (unit not given)): 111.51
Tub. enzyme inhibition assay %inhibition (tubulin; conc 1 (unit not given)): 22.6%
Tub. enzyme inhibition assay K. Activity (tubulin; conc 1 (unit not given)): 92.923
Tub. enzyme inhibition assay %inhibition (tubulin; conc 10 (unit not given)): 45.7%
Tub. enzyme inhibition assay K. Activity (tubulin; conc 10 (unit not given)): 65.175
Tub. enzyme inhibition assay %inhibition (tubulin; conc 100 (unit not given)): 75.5%
Tub. enzyme inhibition assay K. Activity (tubulin; conc 100 (unit not given)): 29.401
IC50 (tubulin): 20.6 ± 0.75 µM
Tub. (IC50) IC50±SD (tubulin): 11.14 ± 0.41 mg/L

From PMC12040969, “Design, synthesis, in silico studies, and apoptotic antiproliferative activity of novel thiazole-2-acetamide derivatives as tubulin polymerization inhibitors” (Frontiers in Chemistry, 2025)
